Active and inactive are the calls of the source. The calls are words filed in the database; no cut-off is given here.
Legend:
[1] = molecular target: Fibroblast growth factor receptor 3 (Homo sapiens, UniProt P22607); assay: Inhibition of FGFR3
[2] = molecular target: Hepatocyte growth factor receptor (Homo sapiens, UniProt P08581); assay: Inhibition of HGFR
[3] = molecular target: Insulin-like growth factor 1 receptor (Homo sapiens, UniProt P08069); assay: Inhibition of IGF1R
Insulin receptor = Insulin receptor (Homo sapiens, UniProt P06213); assay: Inhibition of IR
[4] = molecular target: High affinity nerve growth factor receptor (Homo sapiens, UniProt P04629); assay: Inhibition of TrkA
Chain of High affinity nerve growth factor receptor (P04629 whole entry): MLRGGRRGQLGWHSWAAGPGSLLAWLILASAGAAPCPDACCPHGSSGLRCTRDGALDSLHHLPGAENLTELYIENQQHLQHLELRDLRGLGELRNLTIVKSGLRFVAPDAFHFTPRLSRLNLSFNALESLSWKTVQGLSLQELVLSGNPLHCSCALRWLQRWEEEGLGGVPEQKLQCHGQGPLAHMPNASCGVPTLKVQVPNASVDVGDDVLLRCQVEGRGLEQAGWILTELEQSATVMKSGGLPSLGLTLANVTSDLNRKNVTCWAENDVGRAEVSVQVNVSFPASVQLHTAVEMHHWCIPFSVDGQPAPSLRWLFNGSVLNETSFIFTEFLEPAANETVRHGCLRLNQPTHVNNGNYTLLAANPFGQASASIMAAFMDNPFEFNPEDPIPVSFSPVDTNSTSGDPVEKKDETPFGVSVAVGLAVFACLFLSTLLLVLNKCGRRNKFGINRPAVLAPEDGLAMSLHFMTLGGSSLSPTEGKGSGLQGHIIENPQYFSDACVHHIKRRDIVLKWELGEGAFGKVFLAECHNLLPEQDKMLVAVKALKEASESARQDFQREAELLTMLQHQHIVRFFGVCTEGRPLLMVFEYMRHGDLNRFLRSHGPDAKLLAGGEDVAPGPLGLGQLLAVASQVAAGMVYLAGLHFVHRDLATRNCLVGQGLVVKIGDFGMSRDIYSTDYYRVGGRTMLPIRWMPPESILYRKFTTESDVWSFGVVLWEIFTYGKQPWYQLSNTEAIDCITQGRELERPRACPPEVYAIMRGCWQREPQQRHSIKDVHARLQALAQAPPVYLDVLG

[5] = molecular target: Vascular endothelial growth factor receptor 1 (Homo sapiens, UniProt P17948); assay: Inhibition of VEGFR1
[6] = molecular target: T1, Inhibitor of nuclear factor kappa-B kinase subunit beta (Homo sapiens, UniProt O14920); assay: Inhibition of Flag epitope-tagged IKK-beta preincubated for 5 mins by scintillation proximity assay
T1 sequence (O14920 whole entry): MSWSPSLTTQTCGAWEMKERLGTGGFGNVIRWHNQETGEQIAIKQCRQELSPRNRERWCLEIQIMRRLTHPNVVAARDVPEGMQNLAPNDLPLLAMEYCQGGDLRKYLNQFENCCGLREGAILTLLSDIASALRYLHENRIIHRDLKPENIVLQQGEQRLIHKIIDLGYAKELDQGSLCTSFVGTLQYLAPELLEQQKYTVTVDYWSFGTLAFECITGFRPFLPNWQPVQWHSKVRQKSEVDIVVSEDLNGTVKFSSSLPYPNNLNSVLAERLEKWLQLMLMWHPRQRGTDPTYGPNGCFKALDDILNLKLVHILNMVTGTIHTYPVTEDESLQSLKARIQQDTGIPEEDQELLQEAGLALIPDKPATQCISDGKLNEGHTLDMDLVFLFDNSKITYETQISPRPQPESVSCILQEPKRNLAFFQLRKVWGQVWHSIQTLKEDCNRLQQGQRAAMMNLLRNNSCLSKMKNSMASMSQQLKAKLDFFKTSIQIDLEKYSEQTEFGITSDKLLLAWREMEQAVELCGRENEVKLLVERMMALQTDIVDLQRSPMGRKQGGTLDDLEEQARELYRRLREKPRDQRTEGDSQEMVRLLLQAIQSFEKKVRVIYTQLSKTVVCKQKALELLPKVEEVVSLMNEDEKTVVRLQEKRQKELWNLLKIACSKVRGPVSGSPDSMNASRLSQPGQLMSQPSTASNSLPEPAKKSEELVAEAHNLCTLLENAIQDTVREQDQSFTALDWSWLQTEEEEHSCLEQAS

Blood = assay: Inhibition of LPS-induced TNFalpha production in human whole blood; type: functional, tissue-based
Mus musculus [7] = assay: Inhibition of LPS-induced TNFalpha production in mouse at 100 mg/kg, po administered 60 mins before LPS challenge; type: functional
Mus musculus [8] = assay: Inhibition of LPS-induced TNFalpha production in mouse at 10 mg/kg, po administered 60 mins before LPS challenge; type: functional
[9] = Plasma concentration in mouse at 100 mg/kg, po after 120 mins; type: ADME, organism-based; parameters: dose 100 mg/kg, route oral
[10] = Plasma concentration in mouse at 10 mg/kg, po after 120 mins; type: ADME, organism-based; parameters: dose 10 mg/kg, route oral
[11] = Inhibition of JNK/SAPK1c at 10 uM
[12] = molecular target: Mitogen-activated protein kinase 14 (Homo sapiens) (UniProt Q16539); assay: Inhibition of p38alpha at 10 uM
Chain of Mitogen-activated protein kinase 14 (Homo sapiens) (Q16539 whole entry): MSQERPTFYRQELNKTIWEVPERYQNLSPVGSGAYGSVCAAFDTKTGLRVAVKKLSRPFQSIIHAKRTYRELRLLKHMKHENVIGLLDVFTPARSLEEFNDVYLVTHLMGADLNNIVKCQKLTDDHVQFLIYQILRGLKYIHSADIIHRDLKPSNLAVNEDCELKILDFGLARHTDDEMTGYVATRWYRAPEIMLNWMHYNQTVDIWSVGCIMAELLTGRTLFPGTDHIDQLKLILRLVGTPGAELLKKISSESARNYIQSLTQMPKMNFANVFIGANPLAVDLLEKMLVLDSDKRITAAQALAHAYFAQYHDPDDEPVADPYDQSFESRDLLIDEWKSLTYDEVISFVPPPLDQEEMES

[13] = molecular target: T2, MAP kinase-activated protein kinase 5 (Homo sapiens) (UniProt Q8IW41); assay: Inhibition of PRAK at 10 uM
T2 sequence (whole entry): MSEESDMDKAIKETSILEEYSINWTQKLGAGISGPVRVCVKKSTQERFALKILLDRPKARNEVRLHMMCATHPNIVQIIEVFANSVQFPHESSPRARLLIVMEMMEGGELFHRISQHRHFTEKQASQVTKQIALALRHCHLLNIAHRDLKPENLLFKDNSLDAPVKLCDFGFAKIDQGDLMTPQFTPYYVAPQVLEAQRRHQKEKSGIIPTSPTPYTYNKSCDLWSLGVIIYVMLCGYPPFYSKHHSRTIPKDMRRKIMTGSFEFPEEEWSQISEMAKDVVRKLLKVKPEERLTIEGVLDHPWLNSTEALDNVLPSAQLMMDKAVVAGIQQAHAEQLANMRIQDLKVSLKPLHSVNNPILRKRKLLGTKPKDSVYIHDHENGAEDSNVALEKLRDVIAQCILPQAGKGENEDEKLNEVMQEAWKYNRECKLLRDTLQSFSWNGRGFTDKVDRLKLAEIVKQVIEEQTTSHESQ

[14] = molecular target: Protein kinase C alpha type (Homo sapiens) (UniProt P17252); assay: Inhibition of PKCalpha at 10 uM
[15] = molecular target: Ribosomal protein S6 kinase beta-1 (Homo sapiens) (UniProt P23443); assay: Inhibition of S6K1 at 10 uM
Chain of Ribosomal protein S6 kinase beta-1 (Homo sapiens) (P23443 whole entry, looked up): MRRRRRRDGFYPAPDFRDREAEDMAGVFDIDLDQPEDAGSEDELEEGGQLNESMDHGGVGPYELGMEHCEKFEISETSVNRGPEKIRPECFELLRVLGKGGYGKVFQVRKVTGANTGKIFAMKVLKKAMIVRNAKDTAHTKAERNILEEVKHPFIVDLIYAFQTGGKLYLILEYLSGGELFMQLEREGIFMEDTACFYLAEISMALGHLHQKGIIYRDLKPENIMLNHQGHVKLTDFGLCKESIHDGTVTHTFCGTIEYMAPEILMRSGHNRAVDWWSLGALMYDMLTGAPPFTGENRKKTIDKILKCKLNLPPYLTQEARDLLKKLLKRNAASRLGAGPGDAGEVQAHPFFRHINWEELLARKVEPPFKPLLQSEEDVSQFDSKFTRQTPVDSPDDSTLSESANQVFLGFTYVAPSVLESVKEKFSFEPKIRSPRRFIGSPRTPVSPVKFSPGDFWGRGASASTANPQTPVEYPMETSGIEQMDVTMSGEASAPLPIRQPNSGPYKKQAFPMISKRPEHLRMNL

[16] = molecular target: Rho-associated protein kinase 2 (Homo sapiens) (UniProt O75116); assay: Inhibition of ROCK-2 at 10 uM
Chain of Rho-associated protein kinase 2 (Homo sapiens) (O75116 whole entry, looked up): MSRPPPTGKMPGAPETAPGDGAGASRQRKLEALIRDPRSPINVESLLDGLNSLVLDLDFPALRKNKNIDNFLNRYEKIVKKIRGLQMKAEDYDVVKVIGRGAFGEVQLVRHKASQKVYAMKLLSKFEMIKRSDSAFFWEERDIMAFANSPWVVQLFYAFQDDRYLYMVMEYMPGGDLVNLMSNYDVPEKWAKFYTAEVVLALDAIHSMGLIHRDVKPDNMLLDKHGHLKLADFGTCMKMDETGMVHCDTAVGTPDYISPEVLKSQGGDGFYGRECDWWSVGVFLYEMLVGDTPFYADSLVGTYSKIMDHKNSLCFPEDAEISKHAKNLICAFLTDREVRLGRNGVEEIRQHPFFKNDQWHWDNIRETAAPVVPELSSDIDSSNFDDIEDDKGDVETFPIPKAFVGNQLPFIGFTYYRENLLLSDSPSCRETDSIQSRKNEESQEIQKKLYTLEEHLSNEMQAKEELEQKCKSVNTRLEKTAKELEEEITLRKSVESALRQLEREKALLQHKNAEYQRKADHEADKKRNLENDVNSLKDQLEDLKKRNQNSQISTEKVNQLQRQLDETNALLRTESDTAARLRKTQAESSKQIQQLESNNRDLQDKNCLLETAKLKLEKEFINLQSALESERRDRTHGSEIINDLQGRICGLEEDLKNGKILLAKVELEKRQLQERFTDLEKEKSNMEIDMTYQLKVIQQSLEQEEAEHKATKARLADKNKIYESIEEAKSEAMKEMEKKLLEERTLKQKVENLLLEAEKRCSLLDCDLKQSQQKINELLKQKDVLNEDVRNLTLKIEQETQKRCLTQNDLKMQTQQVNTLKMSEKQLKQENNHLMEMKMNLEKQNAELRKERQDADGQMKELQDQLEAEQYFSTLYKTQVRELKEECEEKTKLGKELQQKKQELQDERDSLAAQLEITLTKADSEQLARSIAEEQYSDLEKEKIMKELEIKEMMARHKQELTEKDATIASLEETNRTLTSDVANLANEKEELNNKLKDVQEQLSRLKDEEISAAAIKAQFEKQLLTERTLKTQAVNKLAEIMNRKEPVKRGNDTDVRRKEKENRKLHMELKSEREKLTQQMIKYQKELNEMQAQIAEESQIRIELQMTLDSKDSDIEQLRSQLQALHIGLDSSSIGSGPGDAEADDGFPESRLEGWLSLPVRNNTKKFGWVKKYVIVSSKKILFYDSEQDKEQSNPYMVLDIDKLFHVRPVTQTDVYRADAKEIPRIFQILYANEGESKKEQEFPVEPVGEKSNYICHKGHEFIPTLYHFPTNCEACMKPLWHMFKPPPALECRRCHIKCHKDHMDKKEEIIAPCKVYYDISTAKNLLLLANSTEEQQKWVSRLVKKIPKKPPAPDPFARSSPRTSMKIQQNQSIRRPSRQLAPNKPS

[17] = molecular target: T3, Serine/threonine-protein kinase Chk1 (Homo sapiens) (UniProt O14757); assay: Inhibition of CHK1 at 10 uM
T3 sequence (whole entry): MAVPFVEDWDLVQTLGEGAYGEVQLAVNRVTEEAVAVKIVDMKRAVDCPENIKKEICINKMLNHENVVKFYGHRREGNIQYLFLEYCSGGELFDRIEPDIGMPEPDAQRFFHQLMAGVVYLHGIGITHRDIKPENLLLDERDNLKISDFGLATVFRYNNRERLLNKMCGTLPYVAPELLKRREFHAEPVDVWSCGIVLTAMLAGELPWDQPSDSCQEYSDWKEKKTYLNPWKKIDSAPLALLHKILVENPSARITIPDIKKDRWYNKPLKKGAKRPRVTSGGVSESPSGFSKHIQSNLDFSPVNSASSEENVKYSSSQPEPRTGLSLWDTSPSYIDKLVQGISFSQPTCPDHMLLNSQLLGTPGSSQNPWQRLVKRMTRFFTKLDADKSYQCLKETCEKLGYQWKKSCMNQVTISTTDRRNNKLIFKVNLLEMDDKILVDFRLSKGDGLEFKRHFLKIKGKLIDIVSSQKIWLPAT

[18] = molecular target: Tyrosine-protein kinase Lck (Homo sapiens) (UniProt P06239); assay: Inhibition of Lck at 10 uM
Chain of Tyrosine-protein kinase Lck (Homo sapiens) (P06239 2-509 limits assumed): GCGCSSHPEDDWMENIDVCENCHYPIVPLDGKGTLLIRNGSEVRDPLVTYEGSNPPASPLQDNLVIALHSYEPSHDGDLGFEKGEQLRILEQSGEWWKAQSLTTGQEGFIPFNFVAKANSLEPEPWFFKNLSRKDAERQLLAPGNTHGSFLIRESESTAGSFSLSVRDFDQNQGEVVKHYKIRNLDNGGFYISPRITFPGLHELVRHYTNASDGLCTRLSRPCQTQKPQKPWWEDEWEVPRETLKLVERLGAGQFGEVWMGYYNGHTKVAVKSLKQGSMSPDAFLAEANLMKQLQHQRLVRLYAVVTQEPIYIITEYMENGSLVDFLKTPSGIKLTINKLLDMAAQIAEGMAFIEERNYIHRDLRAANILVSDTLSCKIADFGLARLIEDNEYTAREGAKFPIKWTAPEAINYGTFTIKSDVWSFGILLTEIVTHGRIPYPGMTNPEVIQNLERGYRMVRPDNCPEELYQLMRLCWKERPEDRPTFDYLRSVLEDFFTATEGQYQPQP

[19] = molecular target: Tyrosine-protein kinase BTK (Homo sapiens, UniProt Q06187); assay: Inhibition of Btk
[20] = molecular target: Tyrosine-protein kinase SYK (Homo sapiens, UniProt P43405); assay: Inhibition of Syk

Chain of Insulin-like growth factor 1 receptor (P08069 31-736 limits assumed): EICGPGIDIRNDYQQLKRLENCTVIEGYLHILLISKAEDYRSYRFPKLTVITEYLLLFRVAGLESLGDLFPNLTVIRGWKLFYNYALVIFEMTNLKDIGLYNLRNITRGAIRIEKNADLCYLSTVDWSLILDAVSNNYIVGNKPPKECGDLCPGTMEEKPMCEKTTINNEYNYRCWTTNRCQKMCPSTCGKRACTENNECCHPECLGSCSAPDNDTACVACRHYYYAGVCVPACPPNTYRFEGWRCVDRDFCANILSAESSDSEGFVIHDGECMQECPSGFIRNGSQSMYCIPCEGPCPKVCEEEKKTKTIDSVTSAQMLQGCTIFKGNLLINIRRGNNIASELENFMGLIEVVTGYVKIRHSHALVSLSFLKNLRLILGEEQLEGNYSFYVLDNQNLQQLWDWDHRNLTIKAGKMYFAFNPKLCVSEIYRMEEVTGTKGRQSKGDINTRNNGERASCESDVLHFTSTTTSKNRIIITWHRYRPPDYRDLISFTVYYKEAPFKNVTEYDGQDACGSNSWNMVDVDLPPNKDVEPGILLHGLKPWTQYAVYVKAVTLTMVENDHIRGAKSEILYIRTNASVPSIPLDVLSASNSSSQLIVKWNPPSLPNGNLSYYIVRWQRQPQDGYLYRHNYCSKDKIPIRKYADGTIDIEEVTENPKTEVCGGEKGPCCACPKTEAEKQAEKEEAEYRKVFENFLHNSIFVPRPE
Chain of Insulin-like growth factor 1 receptor (P08069 741-1367 limits assumed): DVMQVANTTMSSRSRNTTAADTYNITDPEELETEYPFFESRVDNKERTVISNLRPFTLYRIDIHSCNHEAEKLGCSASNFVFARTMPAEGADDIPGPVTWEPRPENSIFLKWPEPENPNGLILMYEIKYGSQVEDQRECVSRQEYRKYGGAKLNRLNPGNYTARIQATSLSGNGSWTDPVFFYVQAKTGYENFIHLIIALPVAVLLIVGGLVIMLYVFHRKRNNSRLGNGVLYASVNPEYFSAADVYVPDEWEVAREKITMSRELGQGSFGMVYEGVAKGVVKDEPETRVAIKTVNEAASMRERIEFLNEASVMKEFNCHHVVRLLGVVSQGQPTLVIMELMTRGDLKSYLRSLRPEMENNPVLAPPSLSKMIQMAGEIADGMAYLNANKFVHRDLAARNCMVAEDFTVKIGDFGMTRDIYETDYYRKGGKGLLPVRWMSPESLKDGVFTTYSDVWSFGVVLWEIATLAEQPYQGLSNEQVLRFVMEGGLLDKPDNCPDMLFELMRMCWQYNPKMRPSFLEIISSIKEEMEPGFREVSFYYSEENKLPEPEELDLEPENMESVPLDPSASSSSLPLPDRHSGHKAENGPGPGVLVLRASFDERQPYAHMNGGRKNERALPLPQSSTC

Structure (SMILES)	IC50 [1]	IC50 [2]	IC50 [3]	IC50 (Insulin receptor)	IC50 [5]	IC50 [6]	IC50 (Blood)	inhibition in vivo at 100 mg/kg (Mus musculus [7])	inhibition in vivo at 10 mg/kg (Mus musculus [8])	concentration at 2 h [9]	concentration at 2 h [10]	Activity [11]	Activity [12]	Activity [13]	Activity [14]	Activity [15]	Activity [16]	Activity [17]	Activity [18]	IC50 [19]	also measured
CCCc1cc(N2CCCC(O)C2)nc2sc(C(N)=O)c(N)c12 (centres undefined)	> 7 µM	> 7 µM	> 7 µM	> 7 µM	> 7 µM	570 nM	13 µM	93%	14%	22.5 µM	170 nM	inactive	inactive	inactive	inactive	inactive	inactive	inactive	inactive	> 7 µM	IC50 [4]: > 7 µM
CCCc1cc(N2CCNCC2)nc2sc(C(N)=O)c(N)c12	> 7 µM	> 7 µM	> 7 µM	–	> 7 µM	120 nM	3.2 µM	74%	12%	3.5 µM	< 10 nM	inactive	inactive	inactive	inactive	inactive	inactive	inactive	inactive	> 7 µM	IC50 [20]: > 7 µM; IC50 [4]: > 7 µM
CCCc1cc(N2CCC(O)CC2)nc2sc(C(N)=O)c(N)c12	> 7 µM	> 7 µM	> 7 µM	> 7 µM	> 7 µM	280 nM	9.8 µM	98%	42%	42.3 µM	1600 nM	inactive	inactive	inactive	inactive	inactive	inactive	inactive	inactive	> 7 µM	IC50 [20]: > 7 µM
CCCc1cc(N2CCC(N)CC2)nc2sc(C(N)=O)c(N)c12	> 7 µM	–	> 7 µM	> 7 µM	> 7 µM	41 nM	1.6 µM	81%	17%	2.8 µM	< 10 nM	inactive	inactive	inactive	inactive	inactive	inactive	inactive	inactive	> 7 µM	IC50 [20]: > 7 µM; IC50 [4]: > 7 µM
